Results from patent US10682320B2, “Method for inhibiting osteoclast development” (West Virginia University, priority 2012, dated 2020).

Tests used:
CRAC channel = CRAC channel (Homo sapiens, UniProt Q13586); assay: CRAC channel activity by Fura-2 fluorescence in Jurkat cells after thapsigargin; format: cell-based; design: endogenous in cells; host or cells: Jurkat cells
Method: Ratiometric imaging of intracellular Ca^2+ using fura-2 was as described (see, Zhou et al., 2009 above). Briefly, cells on coverslips, in cation safe solution (107 mM NaCl, 7.2 mM KCl, 1.2 mM MgCl2, 11.5 mM glucose, 20 mM HEPES-NaOH, pH 7.2) were loaded with fura-2 acetoxymethyl ester (2 μM) for 30 min at 24° C. Cells were washed and fluorescent probe was allowed to de-esterify for 30 min. From signal remaining after saponin permeabilization, ˜85% of the dye was confined to the cytoplasm (see, Ma H-T, Patterson R L. van Rossum D B. Birnbaumer L, Mikoshiba K, Gill D L, “Requirement of the inositol trisphosphate receptor for activation of store-operated Ca^2+ channels”, Science, Vol. 287, pages 1647-1651, 2000). Ca^2+ measurements were made using a Leica DMI 6000B fluorescence microscope controlled by Slidebook Software. Fluorescence emission at 505 nm was monitored while alternating between 340 and 380 nm excitation wavelengths at a frequency of 0.67 Hz; intracellular Ca^2+ measurements are shown as 340/380 nm emission ratios obtained from groups (35-45) of single cells. Measurements shown are representative a minimum of three independent experiments.
N-(3,4-dibromophenyl)propanamide]. Jurkat cells, a T cell line that is very sensitive to DCPA, was cultured with the indicated compounds, DCPA, DBPA, and ethanol (EtOH). CRAC channel activity was monitored using Fura-2 fluorescence using standard known techniques. Cells were incubated in each composition at 100 uM for 10 minutes prior to addition of the SERCA inhibitor thapsigargin (Tg) to induce SOCe. Decreased CRAC channel activity is clearly evident with DCPA and DBPA.
Jurkat cells, a T cell line that is very sensitive to DCPA, was cultured with the indicated compositions of the present invention, namely, DNI, NM Propanil, and DNMNI. CRAC channel activity was monitored using Fura-2 fluorescence using standard known techniques. Cells were incubated in each composition at 100 uM for 10 minutes prior to addition of the SERCA inhibitor thapsigargin (Tg) to induce SOCe. Decreased CRAC channel activity is clearly evident with each of the compositions of the present invention. […] Each of the compositions of this invention achieve the results achieved with the known DCPA but without the burden of toxicity of DCPA that would accompany further metabolism of DCPA.

[1] = test system: store-operated Ca2+ entry (SOCe); assay: Store-operated Ca2+ entry (SOCe) in human osteoclasts; format: cell-based; settings: n=3; data not shown
Method: Human monocytes were isolated from normal buffy coat cells (60-80 ml) obtained with approval of institutional review boards by separation from donor blood, the white-cell depleted blood retained for clinical use. Human monocyte culture and differentiation were as reported (see, Yaroslayskly B B, Zhang Y, Kalla S E, Garcia P V, Sharrow A C, Li Y, Zaidi M, Wu C, Blair H C, “NO-dependent osteoclast motility: Reliance on cGMP-dependent protein kinase I and VASP”, J Cell Sci I, Vol. 18, pages 5479-5487, 2005). […]
Ratiometric imaging of intracellular Ca^2+ using fura-2 was as described (see, Zhou et al., 2009 above). […] Ca^2+ measurements were made using a Leica DMI 6000B fluorescence microscope controlled by Slidebook Software. Fluorescence emission at 505 nm was monitored while alternating between 340 and 380 nm excitation wavelengths at a frequency of 0.67 Hz; intracellular Ca^2+ measurements are shown as 340/380 nm emission ratios obtained from groups (35-45) of single cells. […]
The haloanilide DCPA blocks store-operated Ca^2+ channel function in Jurkat cells with no effect on ER Ca^2+ content. […] To address this, the present inventor examined HEK293 cells stably expressing Orai I and transiently transfected with YFP-STIMI and measured the effect of DCPA on CRAC current or Icrac. […]

Sequence of CRAC channel (Q13586 23-685): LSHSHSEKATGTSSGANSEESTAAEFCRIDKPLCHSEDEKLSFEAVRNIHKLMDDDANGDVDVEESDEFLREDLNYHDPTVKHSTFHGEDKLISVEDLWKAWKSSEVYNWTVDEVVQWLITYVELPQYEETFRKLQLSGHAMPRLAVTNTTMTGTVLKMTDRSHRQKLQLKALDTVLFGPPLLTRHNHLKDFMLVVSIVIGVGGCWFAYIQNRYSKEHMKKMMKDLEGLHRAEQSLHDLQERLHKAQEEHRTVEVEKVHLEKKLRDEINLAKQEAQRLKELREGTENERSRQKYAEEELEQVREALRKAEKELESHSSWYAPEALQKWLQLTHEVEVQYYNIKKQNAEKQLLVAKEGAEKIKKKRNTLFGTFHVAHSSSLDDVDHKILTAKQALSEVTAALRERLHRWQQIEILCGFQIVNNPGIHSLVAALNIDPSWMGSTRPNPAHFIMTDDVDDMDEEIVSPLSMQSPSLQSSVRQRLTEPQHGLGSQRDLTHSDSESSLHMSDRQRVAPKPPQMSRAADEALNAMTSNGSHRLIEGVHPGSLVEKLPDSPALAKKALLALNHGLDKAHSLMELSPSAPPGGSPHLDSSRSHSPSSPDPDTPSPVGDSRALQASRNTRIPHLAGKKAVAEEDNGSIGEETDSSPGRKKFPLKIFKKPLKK

SMILES: CCC(=O)Nc1ccc(Cl)c(Cl)c1 [DCPA, N-(3,4-dichlorophenyl)propanamide]
- effect on ER Ca2+ content (CRAC channel): no effect
- store-operated Ca2+ channel function (CRAC channel): blocks
- CRAC channel activity (CRAC channel; 100 uM, 10 minutes before thapsigargin): Decreased
- reduction of SOCe in osteoclasts [1]: 27.5%
